Results from ChEMBL document CHEMBL5096202, “Carbon-silicon switch led to the discovery of novel synthetic cannabinoids with therapeutic effects in a mouse model of multiple sclerosis” (Eur J Med Chem, 2021).

Target: T1, Cannabinoid receptor 2 (Homo sapiens, UniProt P34972)
T1 sequence (P34972 whole entry): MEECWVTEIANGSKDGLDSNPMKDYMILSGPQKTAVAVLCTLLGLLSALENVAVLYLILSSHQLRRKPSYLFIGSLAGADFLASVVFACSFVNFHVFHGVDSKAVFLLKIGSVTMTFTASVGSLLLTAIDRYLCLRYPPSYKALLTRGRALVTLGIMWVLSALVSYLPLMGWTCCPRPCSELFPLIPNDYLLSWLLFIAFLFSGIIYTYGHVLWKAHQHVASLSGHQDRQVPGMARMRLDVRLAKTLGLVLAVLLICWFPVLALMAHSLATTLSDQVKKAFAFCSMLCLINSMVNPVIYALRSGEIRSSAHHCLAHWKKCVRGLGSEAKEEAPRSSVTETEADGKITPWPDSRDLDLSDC
Test: Agonist activity at recombinant human CB2 receptor expressed in CHO cells assessed as inhibition of forskolin-induced cAMP accumulation by measuring maximum efficacy preincubated for 15 mins followed by forskolin stimulation and measured after 15 mins by HTRF assay relative to control
Type: functional, cell-based
Details: filed as agonist, time 30.0 min
Work on `CCCC[Si](C)(C)c1cc(O)c2c(c1)OC(C)(C)[C@@H]1CC=C(CO)C[C@@H]21` yielded an Emax of 91.2%. With `CCCCCC[Si](C)(C)c1cc(O)c(C2CCCCCC2)c(OC)c1` the Emax was 98.7%. In the case of `CCCC[Si](C)(C)c1cc(OC)c([C@H]2C=C(CO)[C@H]3C[C@@H]2C3(C)C)c(OC)c1`, the Emax is reported as 83.6%. For `CCCCCC[Si](C)(C)c1cc(O)c(C2CCCCC2)c(O)c1`, the Emax was 95.5%. `CCCC[Si](C)(C)c1cc(O)c2c(c1)OC(C)(C)[C@@H]1CCC(C)=C[C@@H]21` gave an Emax of 95.4%. Work on `CCCCCC[Si](C)(C)c1cc(O)c([C@H]2C=C(CO)[C@H]3C[C@@H]2C3(C)C)c(O)c1` yielded an Emax of 94.1%. With `CCCCCC[Si](C)(C)c1cc(O)c(C2CCCCC2)c(OC)c1` the Emax was 92.7%. For `CCCCCCC(C)(C)c1cc(OC)c([C@H]2C=C(CO)[C@H]3C[C@@H]2C3(C)C)c(OC)c1`, the Emax was 101%. Molecule `CCCC[Si](C)(C)c1cc(O)c(C2CCCCC2)c(OC)c1` has an Emax of 90.4%. With `CCCCCC[Si](C)(C)c1cc(O)c2c(c1)OC(C)(C)c1ccc(C)cc1-2` the Emax was 862%. In the case of `CCCCCC[Si](C)(C)c1cc(O)c(C2CCCCCC2)c(O)c1`, the Emax is reported as 92%. For `CCCCCC[Si](C)(C)c1cc(O)c(C2CCCC2)c(OC)c1`, the Emax was 89.8%. `CCCC[Si](C)(C)c1cc(O)c(C2CCCC2)c(OC)c1` gave an Emax of 85.4%.

Target: T2, Cannabinoid receptor 1 (Homo sapiens, UniProt P21554)
T2 sequence (P21554 whole entry): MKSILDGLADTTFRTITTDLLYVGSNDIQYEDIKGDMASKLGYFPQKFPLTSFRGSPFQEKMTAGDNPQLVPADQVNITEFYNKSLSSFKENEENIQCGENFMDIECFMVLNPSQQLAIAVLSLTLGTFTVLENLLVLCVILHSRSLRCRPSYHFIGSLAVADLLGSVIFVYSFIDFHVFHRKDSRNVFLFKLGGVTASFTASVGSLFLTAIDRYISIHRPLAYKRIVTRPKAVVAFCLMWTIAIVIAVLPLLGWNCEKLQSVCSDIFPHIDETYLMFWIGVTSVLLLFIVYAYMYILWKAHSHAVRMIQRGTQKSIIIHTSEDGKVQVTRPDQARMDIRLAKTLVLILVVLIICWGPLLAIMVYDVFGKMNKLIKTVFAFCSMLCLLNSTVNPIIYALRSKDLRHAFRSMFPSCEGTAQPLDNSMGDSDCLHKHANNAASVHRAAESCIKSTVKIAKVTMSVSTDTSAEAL
Test: Displacement of [3H]-CP55940 from recombinant human CB1 receptor expressed in CHO cells assessed as inhibition constant incubated for 120 mins by radioligand binding assay
Type: cell-based
Details: not given
`CCCC[Si](C)(C)c1cc(O)c2c(c1)OC(C)(C)[C@@H]1CC=C(CO)C[C@@H]21` showed a Ki of 2.28 nM. Molecule `CCCCCC[Si](C)(C)c1cc(O)c(C2CCCCCC2)c(OC)c1` has a Ki of 182 nM. With `CCCC[Si](C)(C)c1cc(OC)c([C@H]2C=C(CO)[C@H]3C[C@@H]2C3(C)C)c(OC)c1` the Ki was 454 nM. For `CCCCCC[Si](C)(C)c1cc(O)c(C2CCCCC2)c(O)c1`, the Ki was 17.7 nM. For `CCCC[Si](C)(C)c1cc(O)c2c(c1)OC(C)(C)[C@@H]1CCC(C)=C[C@@H]21`, the Ki was 2.33 nM. For `CCCCCC[Si](C)(C)c1cc(O)c([C@H]2C=C(CO)[C@H]3C[C@@H]2C3(C)C)c(O)c1`, the Ki was 14.3 nM. For `CCCCCC[Si](C)(C)c1cc(O)c(C2CCCCC2)c(OC)c1`, the Ki was 448 nM. Work on `CCCC[Si](C)(C)c1cc(O)c(C2CCCCC2)c(OC)c1` yielded a Ki of 671 nM. In the case of `CCCCCC[Si](C)(C)c1cc(O)c2c(c1)OC(C)(C)c1ccc(C)cc1-2`, the Ki is reported as 0.79 nM. Work on `CCCCCC[Si](C)(C)c1cc(O)c(C2CCCCCC2)c(O)c1` yielded a Ki of 17.7 nM. Work on `CCCCCC[Si](C)(C)c1cc(O)c(C2CCCC2)c(OC)c1` yielded a Ki of 74.8 nM. Molecule `CCCC[Si](C)(C)c1cc(O)c(C2CCCC2)c(OC)c1` has a Ki of 600 nM.

Target: T1, Cannabinoid receptor 2
Test: Displacement of [3H]-CP55940 from recombinant human CB2 receptor expressed in CHO cells assessed as inhibition constant incubated for 120 mins by radioligand binding assay
Type: cell-based
Details: not given
`CCCC[Si](C)(C)c1cc(O)c2c(c1)OC(C)(C)[C@@H]1CC=C(CO)C[C@@H]21` showed a Ki of 0.65 nM. Molecule `CCCCCC[Si](C)(C)c1cc(O)c(C2CCCCCC2)c(OC)c1` has a Ki of 67.2 nM. With `CCCC[Si](C)(C)c1cc(OC)c([C@H]2C=C(CO)[C@H]3C[C@@H]2C3(C)C)c(OC)c1` the Ki was 227 nM. `CCCCCC[Si](C)(C)c1cc(O)c(C2CCCCC2)c(O)c1` showed a Ki of 9.08 nM. For `CCCC[Si](C)(C)c1cc(O)c2c(c1)OC(C)(C)[C@@H]1CCC(C)=C[C@@H]21`, the Ki was 1.48 nM. With `CCCCCC[Si](C)(C)c1cc(O)c([C@H]2C=C(CO)[C@H]3C[C@@H]2C3(C)C)c(O)c1` the Ki was 11.4 nM. `CCCCCC[Si](C)(C)c1cc(O)c(C2CCCCC2)c(OC)c1` showed a Ki of 165 nM. With `CCCC[Si](C)(C)c1cc(O)c(C2CCCCC2)c(OC)c1` the Ki was 396 nM. Work on `CCCCCC[Si](C)(C)c1cc(O)c2c(c1)OC(C)(C)c1ccc(C)cc1-2` yielded a Ki of 2.21 nM. Molecule `CCCCCC[Si](C)(C)c1cc(O)c(C2CCCCCC2)c(O)c1` has a Ki of 6.53 nM. Work on `CCCCCC[Si](C)(C)c1cc(O)c(C2CCCC2)c(OC)c1` yielded a Ki of 167 nM. Molecule `CCCC[Si](C)(C)c1cc(O)c(C2CCCC2)c(OC)c1` has a Ki of 903 nM.

Target: T2, Cannabinoid receptor 1
Test: Agonist activity at recombinant human CB1 receptor expressed in CHO cells assessed as inhibition of forskolin-induced cAMP accumulation preincubated for 15 mins followed by forskolin stimulation and measured after 15 mins by HTRF assay
Type: functional, cell-based
Details: not given
In the case of `CCCC[Si](C)(C)c1cc(O)c2c(c1)OC(C)(C)[C@@H]1CC=C(CO)C[C@@H]21`, the EC50 is reported as 35.2 nM. With `CCCCCC[Si](C)(C)c1cc(O)c(C2CCCCCC2)c(OC)c1` the EC50 was 3120 nM. Molecule `CCCCCC[Si](C)(C)c1cc(O)c(C2CCCCC2)c(O)c1` has an EC50 of 453 nM. Molecule `CCCC[Si](C)(C)c1cc(O)c2c(c1)OC(C)(C)[C@@H]1CCC(C)=C[C@@H]21` has an EC50 of 13.9 nM. With `CCCCCC[Si](C)(C)c1cc(O)c([C@H]2C=C(CO)[C@H]3C[C@@H]2C3(C)C)c(O)c1` the EC50 was 248 nM. `CCCCCC[Si](C)(C)c1cc(O)c(C2CCCCC2)c(OC)c1` gave an EC50 of 554 nM. `CCCCCC[Si](C)(C)c1cc(O)c2c(c1)OC(C)(C)c1ccc(C)cc1-2` showed an EC50 of 12.3 nM. In the case of `CCCCCC[Si](C)(C)c1cc(O)c(C2CCCCCC2)c(O)c1`, the EC50 is reported as 129 nM. `CCCCCC[Si](C)(C)c1cc(O)c(C2CCCC2)c(OC)c1` gave an EC50 of 709 nM.

Target: T1, Cannabinoid receptor 2
Test: Agonist activity at recombinant human CB2 receptor expressed in CHO cells assessed as inhibition of forskolin-induced cAMP accumulation preincubated for 15 mins followed by forskolin stimulation and measured after 15 mins by HTRF assay
Type: functional, cell-based
Details: not given
`CCCC[Si](C)(C)c1cc(O)c2c(c1)OC(C)(C)[C@@H]1CC=C(CO)C[C@@H]21` gave an EC50 of 8340 nM. Molecule `CCCCCC[Si](C)(C)c1cc(O)c(C2CCCCCC2)c(OC)c1` has an EC50 of 82.7 nM. With `CCCC[Si](C)(C)c1cc(OC)c([C@H]2C=C(CO)[C@H]3C[C@@H]2C3(C)C)c(OC)c1` the EC50 was 899 nM. Molecule `CCCCCC[Si](C)(C)c1cc(O)c(C2CCCCC2)c(O)c1` has an EC50 of 55 nM. Work on `CCCC[Si](C)(C)c1cc(O)c2c(c1)OC(C)(C)[C@@H]1CCC(C)=C[C@@H]21` yielded an EC50 of 65.1 nM. Molecule `CCCCCC[Si](C)(C)c1cc(O)c([C@H]2C=C(CO)[C@H]3C[C@@H]2C3(C)C)c(O)c1` has an EC50 of 63.5 nM. `CCCCCC[Si](C)(C)c1cc(O)c(C2CCCCC2)c(OC)c1` gave an EC50 of 76.4 nM. In the case of `CCCC[Si](C)(C)c1cc(O)c(C2CCCCC2)c(OC)c1`, the EC50 is reported as 707 nM. Molecule `CCCCCC[Si](C)(C)c1cc(O)c2c(c1)OC(C)(C)c1ccc(C)cc1-2` has an EC50 of 32.6 nM. With `CCCCCC[Si](C)(C)c1cc(O)c(C2CCCCCC2)c(O)c1` the EC50 was 165 nM. `CCCCCC[Si](C)(C)c1cc(O)c(C2CCCC2)c(OC)c1` gave an EC50 of 236 nM. Molecule `CCCC[Si](C)(C)c1cc(O)c(C2CCCC2)c(OC)c1` has an EC50 of 1000 nM.

Target: T2, Cannabinoid receptor 1
Test: Agonist activity at recombinant human CB1 receptor expressed in CHO cells assessed as inhibition of forskolin-induced cAMP accumulation by measuring maximum efficacy preincubated for 15 mins followed by forskolin stimulation and measured after 15 mins by HTRF assay relative to control
Type: functional, cell-based
Details: filed as agonist, time 30.0 min
For `CCCC[Si](C)(C)c1cc(O)c2c(c1)OC(C)(C)[C@@H]1CC=C(CO)C[C@@H]21`, the Emax was 102%. For `CCCCCC[Si](C)(C)c1cc(O)c(C2CCCCCC2)c(OC)c1`, the Emax was 67.8%. Molecule `CCCCCC[Si](C)(C)c1cc(O)c(C2CCCCC2)c(O)c1` has an Emax of 98.6%. Work on `CCCC[Si](C)(C)c1cc(O)c2c(c1)OC(C)(C)[C@@H]1CCC(C)=C[C@@H]21` yielded an Emax of 99.6%. With `CCCCCC[Si](C)(C)c1cc(O)c([C@H]2C=C(CO)[C@H]3C[C@@H]2C3(C)C)c(O)c1` the Emax was 102%. `CCCCCC[Si](C)(C)c1cc(O)c(C2CCCCC2)c(OC)c1` showed an Emax of 73.9%. `CCCCCC[Si](C)(C)c1cc(O)c2c(c1)OC(C)(C)c1ccc(C)cc1-2` gave an Emax of 98.4%. In the case of `CCCCCC[Si](C)(C)c1cc(O)c(C2CCCCCC2)c(O)c1`, the Emax is reported as 98%. In the case of `CCCCCC[Si](C)(C)c1cc(O)c(C2CCCC2)c(OC)c1`, the Emax is reported as 81.6%.

Test system: not listed separately
Test: Metabolic stability in human liver microsomes assessed as half life
Type: ADME, Microsome
Details: not given
In the case of `CCCCCCC(C)(C)c1cc(OC)c([C@H]2C=C(CO)[C@H]3C[C@@H]2C3(C)C)c(OC)c1`, the half-life is reported as 20.4 min.

Test system: not listed separately
Test: Metabolic stability in rat liver microsomes assessed as half life
Type: ADME, Microsome
Details: not given
Molecule `CCCCCCC(C)(C)c1cc(OC)c([C@H]2C=C(CO)[C@H]3C[C@@H]2C3(C)C)c(OC)c1` has a half-life of 18.2 min.

Test system: not listed separately
Test: Metabolic stability in mouse liver microsomes assessed as half life
Type: ADME, Microsome
Details: not given
With `CCCCCCC(C)(C)c1cc(OC)c([C@H]2C=C(CO)[C@H]3C[C@@H]2C3(C)C)c(OC)c1` the half-life was 7.84 min.

Test system: not listed separately
Test: Metabolic stability in human liver microsomes assessed as intrinsic clearance
Type: ADME, Microsome
Details: read-out: CLH
Work on `CCCCCCC(C)(C)c1cc(OC)c([C@H]2C=C(CO)[C@H]3C[C@@H]2C3(C)C)c(OC)c1` yielded a CLint scaled of 85.4 mL/min/kg.

Test system: not listed separately
Test: Metabolic stability in rat liver microsomes assessed as intrinsic clearance
Type: ADME, Microsome
Details: read-out: CLH
Work on `CCCCCCC(C)(C)c1cc(OC)c([C@H]2C=C(CO)[C@H]3C[C@@H]2C3(C)C)c(OC)c1` yielded a CLint scaled of 137 mL/min/kg.

Test system: not listed separately
Test: Metabolic stability in mouse liver microsomes assessed as intrinsic clearance
Type: ADME, Microsome
Details: read-out: CLH
Work on `CCCCCCC(C)(C)c1cc(OC)c([C@H]2C=C(CO)[C@H]3C[C@@H]2C3(C)C)c(OC)c1` yielded a CLint scaled of 696 mL/min/kg.
